Where a name gives a salt, the structure may show the parent alone.
Tests used:
Type in all cases: biochemical
Conditions in all cases: single concentration (200, 100 or 50 μM), in duplicate, versus the positive control (vehicle)
[1] = target: T1, DNA gyrase (Escherichia coli, UniProt P0AES4+P0AES6); experiment: DNA gyrase supercoiling assay (E. coli)
T1 construct: purchased Inspiralis, UK
Procedure: (§1) The above compounds were tested for the inhibition of the enzyme DNA gyrase in a gyrase supercoiling assay and for the inhibition of the enzyme topoisomerase IV in a decatenation assay, in both Gram positive and Gram negative bacteria, according to the following methods.
(§2) Both the assays were carried out according to a set-up method modified from the article to Blanche F, et al. “Differential Behaviors of Staphylococcus aureus and Escherichia coli Type II DNA Topoisomerases”, Antimicrob.
(§3) The compounds were screened at single concentration (200, 100 or 50 μM), in duplicate.
(§4) Ciprofloxacin and novobiocin were used as reference compounds, at single concentration of 200 and 50 μM, respectively.
(§5) DNA Gyrase Supercoiling Assay.
(§6) Reagents from S. aureus and E. coli Gyrase Supercoiling Assay kits (Inspiralis, UK) were used. A master mix with a total volume sufficient for the number of reactions to perform was prepared with the following reagents: 5× assay buffer, relaxed pBR322 substrate (0.5 μg/reaction), RNase-DNase free water. Aliquotes of this mix were dispensed in each tube, then 10× compound stock solutions or vehicle control (DMSO), were added to each reaction tube.
(§7) Reaction was started with E. Coli (2 U/reaction) or S. aureus (1 U/reaction) gyrase enzyme addition.
(§8) A sample added with an equal volume of dilution buffer was used as negative control (without enzyme).
(§9) The reaction tubes were gentle vortexed and incubated 30 minutes at 37° C. Each reaction was stopped by adding 30 μl of Stop Buffer and 30 μl chloroform/isoamyl alcohol (24/1), briefly vortexed for 5-10 seconds and centrifuged at 20000×g for 2 minutes. Samples were loaded onto 1% agarose gel and subjected to electrophoresis for 1 hour at 80V constant voltage in TAE (40 mM Tris-acetate, 2 mM EDTA).
(§10) Data acquisition and analysis. Treatment of relaxed pBR322 with DNA gyrase converted the relaxed topoisomers (DNAs of different linking number) to the supercoiled form of the plasmid, which migrates faster on an agarose gel. An upper band might also be visible, which consists of open-circular (nicked) DNA which is present in the relaxed substrate but co-migrates with some of the relaxed topoisomers.
(§11) Bands were visualized by ethidium bromide staining (dil 1:20000) for 30 minutes followed by destaining in distilled water for 10 minutes.
(§12) In order to evaluate the compounds activity on the enzyme, the bands of supercoiled DNAs in the gel were photographed by a digital imaging system ImageQuant LAS 4000 (GE Healthcare) according to manufacturer's instructions.
(§13) The fluorescent intensity of each band was analysed by ImageQuant TL software and it was expressed as volume (volume of the uncalibrated quantity of material in the image feature after subtraction of the background intensity by using rolling ball method).
(§14) Each band intensity was compared, as percentage, to vehicle sample band intensity, which served as positive control, on the same gel.
(§15) Inhibitory activity was expressed as percent of inhibition versus the positive control.

[2] = target: T2, Topoisomerase IV (Escherichia coli, UniProt P0AFI2+P20083); experiment: Topoisomerase IV decatenation assay (E. coli)
T2 construct: purchased Inspiralis, UK
T2 sequence (P20083 whole entry): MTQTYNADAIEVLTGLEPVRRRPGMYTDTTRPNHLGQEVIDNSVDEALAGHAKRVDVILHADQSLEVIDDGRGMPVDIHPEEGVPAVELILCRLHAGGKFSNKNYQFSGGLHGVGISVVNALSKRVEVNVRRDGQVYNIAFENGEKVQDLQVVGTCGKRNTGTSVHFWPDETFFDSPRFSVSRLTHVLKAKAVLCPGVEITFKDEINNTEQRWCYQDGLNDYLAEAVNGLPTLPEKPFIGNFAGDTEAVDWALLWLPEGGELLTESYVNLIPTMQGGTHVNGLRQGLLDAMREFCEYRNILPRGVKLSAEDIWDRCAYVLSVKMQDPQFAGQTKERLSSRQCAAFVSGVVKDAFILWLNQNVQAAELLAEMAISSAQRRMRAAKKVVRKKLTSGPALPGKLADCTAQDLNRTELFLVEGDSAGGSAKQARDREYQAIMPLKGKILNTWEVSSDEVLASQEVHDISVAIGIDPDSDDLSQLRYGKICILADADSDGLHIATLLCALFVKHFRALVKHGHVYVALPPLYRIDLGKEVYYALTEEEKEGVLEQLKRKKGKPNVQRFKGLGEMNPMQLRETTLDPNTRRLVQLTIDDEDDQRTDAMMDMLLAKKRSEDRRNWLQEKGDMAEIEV
T2 sequence (P0AFI2 whole entry): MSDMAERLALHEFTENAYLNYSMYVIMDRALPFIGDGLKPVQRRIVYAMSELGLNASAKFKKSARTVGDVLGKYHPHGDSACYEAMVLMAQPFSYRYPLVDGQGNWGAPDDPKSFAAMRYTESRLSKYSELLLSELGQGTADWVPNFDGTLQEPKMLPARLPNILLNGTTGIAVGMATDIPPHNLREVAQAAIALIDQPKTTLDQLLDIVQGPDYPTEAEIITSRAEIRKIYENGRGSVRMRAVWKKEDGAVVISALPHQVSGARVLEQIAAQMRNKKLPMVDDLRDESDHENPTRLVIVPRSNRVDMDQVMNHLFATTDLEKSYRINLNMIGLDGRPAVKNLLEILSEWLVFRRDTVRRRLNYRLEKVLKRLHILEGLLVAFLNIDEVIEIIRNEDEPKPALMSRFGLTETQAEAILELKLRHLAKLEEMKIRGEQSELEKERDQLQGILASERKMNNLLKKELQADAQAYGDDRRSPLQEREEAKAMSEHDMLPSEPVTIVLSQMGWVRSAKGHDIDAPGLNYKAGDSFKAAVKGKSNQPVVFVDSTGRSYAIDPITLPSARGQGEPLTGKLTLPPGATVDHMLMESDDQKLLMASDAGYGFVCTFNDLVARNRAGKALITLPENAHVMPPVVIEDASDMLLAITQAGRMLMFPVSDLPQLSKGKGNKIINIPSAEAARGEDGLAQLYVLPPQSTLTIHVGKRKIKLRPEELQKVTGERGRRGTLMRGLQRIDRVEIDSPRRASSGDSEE
Procedure: as §1, §2, §3, §4
(§16) Topoisomerase IV Decatenation Assay
(§17) S. aureus and E. coli Topoisomerase IV decatenation kits (Inspiralis, UK) were used. A master mix with a total volume sufficient for the number of reactions to perform was prepared with the following reagents: 5× assay buffer (50 mM HEPES-KOH (pH 7.6), 100 mM potassium glutamate, 10 mM magnesium acetate, 10 mM DTT, 1 mM ATP, 50 μg/ml albumin), kDNA substrate (200 ng/reaction), RNase-DNase free water. Aliquots of this mix were dispensed in each tube, then 10× compound stock solutions or vehicle control (DMSO), were added in each reaction tube.
(§18) Reaction was started with Topoisomerase IV enzyme (0.5 U/reaction) addition.
as §8
(§19) The reaction tubes were gentle vortexed and incubated 30 minutes at 37° C. Each reaction was stopped by adding 30 μl of Stop Buffer and 30 μl of chloroform/isoamyl alcohol (24/1), briefly vortexed for 5-10 seconds and centrifuged at 20000×g for 2 minutes. Samples taken from the upper phase were loaded into 1% agarose gel and subjected to electrophoresis for 1 hour at 80V constant voltage in TAE (40 mM Tris-acetate, 2 mM EDTA).
(§20) Data acquisition and analysis. Due to the high molecular mass, kDNA could not enter an agarose gel under normal electrophoresis conditions, but remained in the wells. In the presence of Topo IV topoisomerase mini-circles (2.5 Kb) were released from kDNA by decatenation and were quickly and easily resolved in the gel at relatively high voltages.
as §11
(§21) For single concentration screening assay, in order to evaluate the compounds activity on the enzymes, the bands of decatenated DNAs in the gel were photographed by a digital imaging system ImageQuant LAS 4000 (GE Healthcare) according to manufacturer's instructions.
(§22) The fluorescent intensity of each band was analyzed by ImageQuant TL software and it was expressed as volume (volume of the uncalibrated quantity of material in the image feature after subtraction of the background intensity by using rolling ball method).
as §14, §15

[3] = target: T3, Topoisomerase IV (Staphylococcus aureus, UniProt P0C1S7+P0C1U9); experiment: Topoisomerase IV decatenation assay (S. aureus)
T3 construct: purchased Inspiralis, UK
T3 sequence (P0C1S7 whole entry): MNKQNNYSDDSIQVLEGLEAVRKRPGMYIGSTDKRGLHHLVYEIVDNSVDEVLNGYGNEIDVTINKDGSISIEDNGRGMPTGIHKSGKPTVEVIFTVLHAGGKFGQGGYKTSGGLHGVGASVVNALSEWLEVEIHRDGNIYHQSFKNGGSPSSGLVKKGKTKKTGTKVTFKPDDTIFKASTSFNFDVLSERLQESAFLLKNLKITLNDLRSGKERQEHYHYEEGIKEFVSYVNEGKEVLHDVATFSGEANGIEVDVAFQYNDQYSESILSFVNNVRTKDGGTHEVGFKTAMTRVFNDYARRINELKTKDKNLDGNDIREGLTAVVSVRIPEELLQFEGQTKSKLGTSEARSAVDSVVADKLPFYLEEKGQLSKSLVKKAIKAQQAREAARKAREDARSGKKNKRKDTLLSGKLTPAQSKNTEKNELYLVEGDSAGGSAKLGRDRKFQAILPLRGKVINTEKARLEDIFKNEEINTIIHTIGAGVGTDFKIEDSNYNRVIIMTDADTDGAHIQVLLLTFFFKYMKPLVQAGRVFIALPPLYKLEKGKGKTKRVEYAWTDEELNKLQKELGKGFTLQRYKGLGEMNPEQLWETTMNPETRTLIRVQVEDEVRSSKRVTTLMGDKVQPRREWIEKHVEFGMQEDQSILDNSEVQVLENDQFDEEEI
T3 sequence (P0C1U9 whole entry): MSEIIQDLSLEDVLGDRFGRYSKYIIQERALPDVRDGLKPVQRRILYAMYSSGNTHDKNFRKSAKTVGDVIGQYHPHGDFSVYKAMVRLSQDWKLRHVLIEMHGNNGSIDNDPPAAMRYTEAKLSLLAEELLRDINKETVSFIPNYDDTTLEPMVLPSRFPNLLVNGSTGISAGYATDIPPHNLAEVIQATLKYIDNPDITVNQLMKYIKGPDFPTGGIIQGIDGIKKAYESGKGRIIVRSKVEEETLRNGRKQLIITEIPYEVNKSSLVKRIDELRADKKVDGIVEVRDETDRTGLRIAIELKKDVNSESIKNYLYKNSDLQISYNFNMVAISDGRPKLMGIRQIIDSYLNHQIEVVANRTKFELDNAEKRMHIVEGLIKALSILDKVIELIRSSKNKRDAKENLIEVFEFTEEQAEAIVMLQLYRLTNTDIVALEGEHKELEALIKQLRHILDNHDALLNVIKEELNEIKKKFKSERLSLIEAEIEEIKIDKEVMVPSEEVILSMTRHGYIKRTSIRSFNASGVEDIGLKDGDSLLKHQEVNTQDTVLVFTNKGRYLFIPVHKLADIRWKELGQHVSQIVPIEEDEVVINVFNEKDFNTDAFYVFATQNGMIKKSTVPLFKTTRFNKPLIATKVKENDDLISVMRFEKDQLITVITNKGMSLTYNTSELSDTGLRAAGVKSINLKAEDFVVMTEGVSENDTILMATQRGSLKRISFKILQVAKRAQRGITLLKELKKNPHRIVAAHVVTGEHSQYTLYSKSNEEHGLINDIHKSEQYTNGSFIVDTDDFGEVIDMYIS
Procedure: as §1, §2, §3, §4, §16, §17, §18, §8, §19, §20, §11, §21, §22, §14, §15

[4] = target: T4, DNA gyrase (Staphylococcus aureus, UniProt P0A0K8+P20831); experiment: DNA gyrase supercoiling assay (S. aureus)
T4 construct: purchased Inspiralis, UK
T4 sequence (P20831 whole entry): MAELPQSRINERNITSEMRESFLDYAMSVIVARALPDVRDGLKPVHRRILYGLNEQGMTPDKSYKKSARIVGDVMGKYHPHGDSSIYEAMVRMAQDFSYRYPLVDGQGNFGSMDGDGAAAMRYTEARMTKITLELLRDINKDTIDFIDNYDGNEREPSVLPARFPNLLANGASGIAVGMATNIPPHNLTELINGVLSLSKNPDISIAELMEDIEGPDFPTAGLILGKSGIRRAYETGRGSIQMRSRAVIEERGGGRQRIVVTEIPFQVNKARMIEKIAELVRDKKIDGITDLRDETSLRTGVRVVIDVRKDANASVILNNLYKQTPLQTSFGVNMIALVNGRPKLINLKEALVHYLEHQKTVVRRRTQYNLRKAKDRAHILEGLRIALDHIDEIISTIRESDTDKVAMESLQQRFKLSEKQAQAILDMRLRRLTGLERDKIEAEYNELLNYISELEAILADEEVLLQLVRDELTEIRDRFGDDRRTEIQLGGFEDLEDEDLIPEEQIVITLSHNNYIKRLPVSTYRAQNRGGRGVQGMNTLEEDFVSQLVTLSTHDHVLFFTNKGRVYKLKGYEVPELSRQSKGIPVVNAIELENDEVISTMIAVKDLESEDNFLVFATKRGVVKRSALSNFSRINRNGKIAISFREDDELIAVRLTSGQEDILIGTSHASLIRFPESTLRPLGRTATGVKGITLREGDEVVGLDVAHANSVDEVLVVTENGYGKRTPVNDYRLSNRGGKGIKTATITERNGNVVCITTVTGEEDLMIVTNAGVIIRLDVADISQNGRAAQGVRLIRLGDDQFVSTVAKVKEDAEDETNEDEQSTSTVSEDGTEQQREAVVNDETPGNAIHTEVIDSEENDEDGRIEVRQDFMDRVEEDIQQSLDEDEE
T4 sequence (P0A0K8 whole entry): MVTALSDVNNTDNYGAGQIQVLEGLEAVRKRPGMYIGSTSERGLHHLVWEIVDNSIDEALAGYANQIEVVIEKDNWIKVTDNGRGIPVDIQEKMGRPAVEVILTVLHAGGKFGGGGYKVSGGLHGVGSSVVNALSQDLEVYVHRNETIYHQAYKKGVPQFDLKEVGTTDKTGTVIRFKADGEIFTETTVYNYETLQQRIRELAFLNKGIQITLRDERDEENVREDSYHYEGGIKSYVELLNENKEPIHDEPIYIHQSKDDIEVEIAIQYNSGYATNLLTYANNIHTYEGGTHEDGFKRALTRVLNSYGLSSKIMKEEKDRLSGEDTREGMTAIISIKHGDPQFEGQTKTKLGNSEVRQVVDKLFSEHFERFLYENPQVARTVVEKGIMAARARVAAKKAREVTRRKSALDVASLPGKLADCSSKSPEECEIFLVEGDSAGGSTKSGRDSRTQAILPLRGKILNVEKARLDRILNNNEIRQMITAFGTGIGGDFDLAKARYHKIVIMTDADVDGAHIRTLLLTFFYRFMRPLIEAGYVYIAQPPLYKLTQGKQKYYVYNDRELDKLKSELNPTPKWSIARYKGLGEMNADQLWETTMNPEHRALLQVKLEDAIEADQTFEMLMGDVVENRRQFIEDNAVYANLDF
Procedure: as §1, §2, §3, §4, §5, §6, §7, §8, §9, §10, §11, §12, §13, §14, §15

| Structure (SMILES) | % inhibition DNA gyrase [1] | % inhibition Topo IV [2] | % inhibition Topo IV [3] | % inhibition DNA gyrase [4] |
| --- | --- | --- | --- | --- |
| O=c1cc(NC[C@H](O)[C@@H](O)C2CCN(c3nccc4ccc(F)cc34)CC2)c2ccccc2o1 (racemic) [Compound 128, (2S,3S) and (2R,3R) 4-({3-[1-(7-fluoroisoquinolin-1-yl)piperidin-4-yl]-2,3-dihydroxypropyl}amino)-2H-chromen-2-one hydrochloride] | n/a (n/a = not active) | n/a (n/a = not active) | n/a (n/a = not active) | 66% |
| O=c1cc(NC[C@@H](O)[C@@H](O)C2CCN(c3nccc4ccc(F)cc34)CC2)c2ccccc2o1 (racemic) [Compound 129, (2R,3S) and (2S,3R) 4-({3-[1-(7-fluoroisoquinolin-1-yl)piperidin-4-yl]-2,3-dihydroxypropyl}amino)-2H-chromen-2-one hydrochloride] | 69% | n/a (n/a = not active) | n/a (n/a = not active) | n/a (n/a = not active) |
| O=C(NCCCN1CCN(c2nccc3ccccc23)CC1)c1cccnc1 [Compound 2, N-{3-[4-(isoquinolin-1-yl)piperazin-1-yl]propyl}pyridine-3-carboxamide hydrochloride] | n/a (n/a = not active) | 65% | n/a (n/a = not active) | n/a (n/a = not active) |
| O=C(NCCCN1CCN(c2nccc3ccccc23)CC1)c1ccccc1 [Compound 3, N-{3-[4-(isoquinolin-1-yl)piperazin-1-yl]propyl}benzamide hydrochloride] | 59% | n/a (n/a = not active) | n/a (n/a = not active) | n/a (n/a = not active) |
| O=c1cc(NCCCN2CCN(c3nccc4ccccc34)CC2)c2ccccc2[nH]1 [Compound 58, 4,4-({3-[4-(isoquinolin-1-yl)piperazin-1-yl]propyl}amino)quinolin-2(1H)-one hydrochloride] | 100% | n/a (n/a = not active) |  | n/a (n/a = not active) |
| O=C(CN1CCC(Nc2cc(=O)oc3ccccc23)CC1)Nc1nccc2ccccc12 [Compound 117, N-(isoquinolin-1-yl)-2-{4-[(2-oxo-2H-chromen-4-yl)amino]piperidin-1-yl}acetamide] | 75% | n/a (n/a = not active) |  | n/a (n/a = not active) |
| c1ccc2sc(CNCCCN3CCN(c4nccc5ccccc45)CC3)cc2c1 [Compound 119, N-(1-benzothiophen-2-ylmethyl)-3-[4-(isoquinolin-1-yl)piperazin-1-yl]propan-1-amine] | n/a (n/a = not active) | n/a (n/a = not active) |  | 60% |
| c1ccc2c(N3CCN(CCCNCc4ccc5c(c4)OCO5)CC3)nccc2c1 [Compound 120, N-(1,3-benzodioxol-5-ylmethyl)-3-[4-(isoquinolin-1-yl)piperazin-1-yl]propan-1-amine] | n/a (n/a = not active) | n/a (n/a = not active) |  | 76% |
| c1ccc2c(N3CCN(CCNCc4ccc5c(c4)OCO5)CC3)nccc2c1 [Compound 130, N-(1,3-benzodioxol-5-ylmethyl)-2-[4-(isoquinolin-1-yl)piperazin-1-yl]ethanamine] | n/a (n/a = not active) | n/a (n/a = not active) |  | 74% |
| O=C(O)CC(NC[C@@H](O)CN1CCN(c2nccc3ccc(F)cc23)CC1)C1CCCCC1 (stereo partly drawn) [Compound 136, 3-cyclohexyl-3-({(2R)-3-[4-(7-fluoroisoquinolin-1-yl)piperazin-1-yl]-2-hydroxypropyl}amino)propanoic acid] | 57% | n/a (n/a = not active) |  | 75% |
| O=C(O)CC(NC[C@H](O)CN1CCN(c2nccc3ccc(F)cc23)CC1)C1CCCCC1 (stereo partly drawn) [Compound 137, 3-cyclohexyl-3-({(2S)-3-[4-(7-fluoroisoquinolin-1-yl)piperazin-1-yl]-2-hydroxypropyl}amino)propanoic acid] | 57% | n/a (n/a = not active) |  | 75% |
| O=C(O)[C@@H](NC[C@H](O)CN1CCN(c2nccc3ccc(F)cc23)CC1)C1CCCCC1 [Compound 138, (2S)-cyclohexyl({(2S)-3-[4-(7-fluoroisoquinolin-1-yl)piperazin-1-yl]-2-hydroxypropyl}amino)acetic acid] | n/a (n/a = not active) | n/a (n/a = not active) |  | 89% |
| O=C(O)[C@H](NC[C@@H](O)CN1CCN(c2nccc3ccc(F)cc23)CC1)C1CCCCC1 [Compound 139, (2R)-cyclohexyl({(2R)-3-[4-(7-fluoroisoquinolin-1-yl)piperazin-1-yl]-2-hydroxypropyl}amino)acetic acid] | n/a (n/a = not active) | n/a (n/a = not active) |  | 54% |
| O=C(O)[C@@H](NC[C@@H](O)CN1CCN(c2nccc3ccc(F)cc23)CC1)C1CCCCC1 [Compound 140, (2S)-cyclohexyl({(2R)-3-[4-(7-fluoroisoquinolin-1-yl)piperazin-1-yl]-2-hydroxypropyl}amino)acetic acid] | 68% | n/a (n/a = not active) |  | 92% |
| OCCC(NCCNC1CCN(c2nccc3ccc(F)cc23)CC1)C1CCCCC1 (stereo not shown) [Compound 167, 3-cyclohexyl-3-[(2-{[1-(7-fluoroisoquinolin-1-yl)piperidin-4-yl]amino}ethyl)amino]propan-1-ol] | n/a (n/a = not active) | n/a (n/a = not active) |  | 70% |
| COC(=O)CC(NCCNC1CCN(c2nccc3ccc(F)cc23)CC1)C1CCCCC1 (stereo not shown) [Compound 189, methyl 3-cyclohexyl-3-[(2-{[1-(7-fluoroisoquinolin-1-yl)piperidin-4-yl]amino}ethyl)amino]propanoate] | n/a (n/a = not active) | n/a (n/a = not active) |  | 84% |
| O=C(CC(NCCNC1CCN(c2nccc3ccc(F)cc23)CC1)C1CCCCC1)NO (stereo not shown) [Compound 191, 3-cyclohexyl-3-[(2-{[1-(7-fluoroisoquinolin-1-yl)piperidin-4-yl]amino}ethyl)amino]-N-hydroxypropanamide] | n/a (n/a = not active) | n/a (n/a = not active) |  | 81% |
